Columns and labels:
[1] = test system: primary human mesenchymal stem cells (hMSCs); test: Induction of chondrogenesis in primary human mesenchymal stem cells (hMSCs), nodule imaging with Rhodamine B / Nile Red; type: cell-based; details: for Emax: hMSCs chondrogenesis, TGF-β3 (10 ng/mL) as positive control, read-out: Max. Activity as % TGF-β3 activity; for EC50: hMSCs, concentration required to induce 50% levels of chondrogenesis vs TGF-β3 positive control, read-out: Conc (nM) of 50% TGF-β3 activity
Summary of the method: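 Passage 3-6 hMSCs cultured 6 days at 37° C in incomplete chondrogenic induction medium with compound (2700-10 nM, 96-well; 5000-2.2 nM, 384-well; 0.03% DMSO), TGF-β3 10 ng/mL as positive control. Fixed nodules stained with Rhodamine B/Nile Red, imaged at 531/625 nm; nodule area normalized to DMSO wells for EC50, maximum activity and dose at maximum.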

[2] = test system: LL29 cells (primary human fibroblasts derived from IPF patients) treated with TGF-β1, α-smooth muscle actin; test: Inhibition of the fibrotic process: αSMA staining in TGF-β1 treated primary human fibroblasts from IPF patients (LL29 cells); type: cell-based; details: Fibroblast, 96 h; for EC50: LL29 cells treated with TGF-β1 (20 ng/mL), 4 days; for inhibition at 10 µM: LL29 cells treated with TGF-β1, 4 days, read-out: percent inhibition in brackets (given for EC50 >10 μM)

SMILES	EC50 [1]	Emax [1]	EC50 [2]	inhibition at 10 µM [2]
CC(C)Nc1cncc(-c2ccc3[nH]nc(-c4nc5c(-c6cccnc6)cncc5[nH]4)c3n2)c1 [Compound 96, N-Isopropyl-5-(3-(7-(pyridin-3-yl)-3H-imidazo[4,5-c]pyridin-2-yl)-1H-pyrazolo[4,3-b]pyridin-5-yl)pyridin-3-amine]	30 nM	65%	3090 nM	
COc1cncc(-c2ccc3[nH]nc(-c4nc5c(-c6cccc(F)c6)cncc5[nH]4)c3n2)c1 [Compound 488, 3-(7-(3-Fluorophenyl)-3H-imidazo[4,5-c]pyridin-2-yl)-5-(5-methoxylpyridin-3-yl)-1H-pyrazolo[4,3-b]pyridine]	21 nM	56%	> 10000 nM	0%
CC(C)Nc1cncc(-c2ccc3[nH]nc(-c4nc5c(-c6cc(F)cc(NCCN(C)C)c6)cncc5[nH]4)c3n2)c1 [Compound 432, N^1-(3-Fluoro-5-(2-(5-(5-(isopropylamino)pyridin-3-yl)-1H-pyrazolo[4,3-b]pyridin-3-yl)-3H-imidazo[4,5-c]pyridin-7-yl)phenyl)-N^2,N^2-dimethylethane-1,2-diamine]	300 nM	97%	6400 nM	

Continued by falling EC50 [1], values first:

EC50 [1]	SMILES	Emax [1]	EC50 [2]	inhibition at 10 µM [2]
21 nM	CCCC(=O)Nc1cncc(-c2ccc3[nH]nc(-c4nc5c(-c6ccsc6)cncc5[nH]4)c3n2)c1 [Compound 269, N-(5-(3-(7-(Thiophen-3-yl)-3H-imidazo[4,5-c]pyridin-2-yl)-1H-pyrazolo[4,3-b]pyridin-5-yl)pyridin-3-yl)butyramide]	58%	7220 nM	
10 nM	CN(C)c1cncc(-c2ccc3[nH]nc(-c4nc5c(-c6cccs6)cncc5[nH]4)c3n2)c1 [Compound 315, N,N-Dimethyl-5-(3-(7-(thiophen-2-yl)-3H-imidazo[4,5-c]pyridin-2-yl)-1H-pyrazolo[4,3-b]pyridin-5-yl)pyridin-3-amine]	66%	> 10000 nM	34.3%
10 nM	CN(C)c1cncc(-c2ccc3[nH]nc(-c4nc5c(-c6cccc(F)c6)cncc5[nH]4)c3n2)c1 [Compound 7, 5-(3-(7-(3-Fluorophenyl)-3H-imidazo[4,5-c]pyridin-2-yl)-1H-pyrazolo[4,3-b]pyridin-5-yl)-N,N-dimethylpyridin-3-amine]	154%	> 10000 nM	0%
